Measurements reported in article PMC7327080, “A novel 4-aminoquinazoline derivative, DHW-208, suppresses the growth of human breast cancer cells by targeting the PI3K/AKT/mTOR pathway” (Cell Death & Disease, 2020).

Molecular target: mTOR (Homo sapiens, UniProt P42345)
Assay: in vitro mTOR kinase activity assay (inhibition curve, Fig. 5e)
Format: biochemical

Structure (SMILES): COc1ncc(-c2ccc3ncnc(Nc4cnn(CCO)c4)c3c2)cc1NS(=O)(=O)c1ccc(F)cc1F [DHW-208, 2,4-difluoro-N-(5-(4-((1-(2-hydroxyethyl)-1H-pyrazol-4-yl)amino)quinazolin-6-yl)-2-methoxypyridin-3-yl)benzenesulfonamide]
- IC50: 3 nM
